# Values joined by “and” are separate entries in the source; they are usually repeats but may differ in a detail not shown here. Equal values may be shown once. “Also recorded” adds a separate entry of the source. Positions of bridges follow the written chain, without caps; N, C: chain ends. Residues, ends and D or L forms follow the SMILES beside them.
# Assays:
# cerebellar neurons [1] = assay type: cell-based, rat; settings: K252a 100 nM, KT5720 200 nM, H-89 400 nM, Wortmannin and LY294002 10 μM; for effect on the neurite outgrowth response to BAG: BAG 6 μM; for effect on the neurite outgrowth response to BDNF: BDNF 5 ng/ml; for effect on the neurite outgrowth response to FGF2: FGF2 5 ng/ml
# Procedure: To test the effects of various agents, the experiments were done as indicated in the figure using control media containing no additional supplements, or using media additionally supplement with K252a (100 nM final concentration), a PKA inhibitor (KT5720 at 200 nM final concentration or H-89 at 400 nM final concentration), or a PI3K inhibitor (Wortmannin or Ly294002, each at a final concentration of 10 μM). […] Each column in the figure indicates pooled results from at least three independent experiments, and the bars on each column indicate the SEM.
# Reagents and culture treatment. Unless otherwise noted here, reagents in the experiments set forth in this Section were obtained and as set forth supra, in Section 7.1.3 et seq. In particular, recombinant human FGF2 and BDNF were obtained from R&D systems (Minneapolis, Minn.) and used at final concentrations of 5 ng/ml. The Trk receptor […] K252a was obtained from Calbiochem (San Diego, Calif.) and used at a final concentration of 100 nM. The Trk agonist peptide BAG (SEQ ID NO:18) was obtained from a commercial supplier (Multiple Peptide Systems, San Diego Calif.). […] A p75 NTR rabbit polyclonal antibody was raised against the extracellular domain of that receptor as previously described (see, Huber & Chao, Dev. Biol. 1995, 167:227–238) and used at a 1:200 dilution of serum. The known PKA inhibitors KT5720 and H-89 were obtained from Calbiochem (San Diego, Calif.) and used at final concentrations of 200 and 400 nM, respectively.
# Trk receptor = Trk receptor (Rattus norvegicus, UniProt Q63604); settings: maximally active BAG (6 μM); peptides 125 μM, K252a 100 nM
# TrkB receptor [2] = biological target: T1, TrkB receptor (Rattus norvegicus, UniProt Q63604); test: Neurite outgrowth assay, inhibition of the BDNF response; assay type: cell-based
# T1 construct: endogenous in cells; host or cells: primary rat cerebellar neurons co-cultured on 3T3 fibroblast monolayers
# Procedure: (§1) After 16 hours, the co-cultures were fixed and mean neurite length determined as has been previously described (Williams et al., J. Biol. Chem. 2000, 275:4007–4012).
# (§2) The effect of this peptide on the BDNF and NT-4 response was tested in the above-described neurite outgrowth assay, with both NT ligands used at concentrations of 5 ng/ml.
# TrkB receptor [3] = biological target: T1, TrkB receptor; test: Neurite outgrowth assay, inhibition of the NT-4 response; assay type: cell-based
# Procedure: as §1, §2
# cerebellar neurons [4] = test: Neurite outgrowth assay, cerebellar neurons over 3T3 monolayers (stimulation / basal outgrowth); assay type: cell-based, rat; settings: for effect on basal neurite outgrowth: absence of any natural NT ligand, N-Ac-CRGEC-NH2 at concentrations greater than about 400 μM
# Procedure: as §1
# MAG inhibitory activity [5] = test: Neurite outgrowth over N-cadherin expressing 3T3 (LK8) cells with soluble MAG-Fc; assay type: cell-based, rat; settings: for effect on MAG-Fc inhibition of neurite outgrowth: MAG-Fc up to 25 μg/ml, Y27632 10 μM, BAG 6 μM, BDNF 5 ng/ml
# Procedure: Reagents and culture treatment. […] In particular, recombinant human FGF2 and BDNF were obtained from R&D systems (Minneapolis, Minn.) and used at final concentrations of 5 ng/ml. The Trk receptor agonist K252a was obtained from Calbiochem (San Diego, Calif.) and used at a final concentration of 100 nM. The Trk agonist peptide BAG (SEQ ID NO:18) was obtained from a commercial supplier (Multiple Peptide Systems, San Diego Calif.). […] Monoclonal antibody to GT1b (clone GMR5) was obtained from Seikagaku America (Falmouth, Mass.) and used at a final concentration of 20 μg/ml. A p75 NTR rabbit polyclonal antibody was raised against the extracellular domain of that receptor as previously described (see, Huber & Chao, Dev. Biol. 1995, 167:227–238) and used at a 1:200 dilution of serum. The known PKA inhibitors KT5720 and H-89 were obtained from Calbiochem (San Diego, Calif.) and used at final concentrations of 200 and 400 nM, respectively. The known PI3K inhibitors Wortmnannin and LY294002 were also obtained from Calbiochem (San Diego, Calif.) and were both used at final concentrations of 10 μM. The Rho kinase inhibitor Y27632 was obtained from Tocris (Bristol, UK) and used at 10 μM final concentration.
# All reagents were diluted into the co-culture media and in general added to the cultures just prior to plating of the neurons. The exception was antiserum raised against the p75^NTR receptor. Instead, a high density neuronal suspension was treated with a 1:200 dilution of the serum for 60 minutes. The neurons were then diluted by a factor of about 20, and seeded out for culture.
# GT1b = test: Neurite outgrowth over N-cadherin expressing 3T3 cells with monoclonal antibody for GT1b; assay type: cell-based, rat; settings: antibody 20 μg/ml; Y27632 10 μM, BAG 6 μM
# Procedure: Cultures were maintained for 22 hours before fixing and staining for GAP-43. […] Each column in the figure indicates pooled results from between 7 and 10 independent experiments, and the bars on each column indicate the SEM.
# Reagents and culture treatment. […] In particular, recombinant human FGF2 and BDNF were obtained from R&D systems (Minneapolis, Minn.) and used at final concentrations of 5 ng/ml. The Trk receptor agonist K252a was obtained from Calbiochem (San Diego, Calif.) and used at a final concentration of 100 nM. The Trk agonist peptide BAG (SEQ ID NO:18) was obtained from a commercial supplier (Multiple Peptide Systems, San Diego Calif.). […] A p75 NTR rabbit polyclonal antibody was raised against the extracellular domain of that receptor as previously described (see, Huber & Chao, Dev. Biol. 1995, 167:227–238) and used at a 1:200 dilution of serum. The known PKA inhibitors KT5720 and H-89 were obtained from Calbiochem (San Diego, Calif.) and used at final concentrations of 200 and 400 nM, respectively.
# p75^NTR receptor = test: Neurite outgrowth over N-cadherin expressing 3T3 cells after treatment with antibody to p75NTR; assay type: cell-based, rat; settings: Y27632 10 μM, BAG 6 μM, BDNF 5 ng/ml added after antibody treatment
# Procedure: These antibody treated neurons were cultured after treatment in either: (1) control media without supplements; (2) the Rho kinase inhibitor Y27632 (10 μM final concentration); (3) BAG polypeptide (6 μM final concentration); or (4) BDNF neurotrophin (5 ng/ml final concentration). […] Each column in the figure indicates pooled results from the number of independent experiments indicated above it, and the bars on each column indicate the SEM.
# Reagents and culture treatment. Unless otherwise noted here, reagents in the experiments set forth in this Section were obtained and as set forth supra, in Section 7.1.3 et seq. In particular, recombinant human FGF2 and BDNF were obtained from R&D systems (Minneapolis, Minn.) and used at final concentrations of 5 ng/ml. The Trk receptor […] K252a was obtained from Calbiochem (San Diego, Calif.) and used at a final concentration of 100 nM. The Trk agonist peptide BAG (SEQ ID NO:18) was obtained from a commercial supplier (Multiple Peptide Systems, San Diego Calif.). Recombinant MAG-Fc chimera was obtained from R&D Systems (Minneapolis, Minn.) and used at a final concentration of 5–25 μg/ml. Monoclonal antibody to GT1b (clone GMR5) was obtained from Seikagaku America (Falmouth, Mass.) and used at a final concentration of 20 μg/ml. […]
# MAG inhibitory activity [6] = test: Neurite outgrowth over 3T3 cells that do not express N-cadherin with soluble MAG-Fc; assay type: cell-based, rat; settings: 3T3 without N-cadherin, BAG 6 μM
# MAG inhibitory activity [7] = test: Substrate based neurite outgrowth assay in inhibitory environment (MAG-Fc coated wells); assay type: cell-based, rat; settings: for neurite growth in the inhibitory environment (overall / dose response) / neurite growth in the inhibitory environment at 33 μg/ml: 27 hours; for neurite growth in the inhibitory environment at 33 μg/ml: peptide 33 μg/ml
# Procedure: First, slides are coated with polylysine at 17 μg/ml in distilled water (“dH2O) for thirty (30) minutes at room temperature. After aspirating the wells, a mixture of anti-human IgG and/or fibronectin (both at 10 μg/ml in DMEM) is added to wells to be coated with those compounds, and incubated for 120 minutes. […] PND2/3 rat cerebellar neurons are then added at 15K to each well in DMEM, 10% FCS, 25 mM KCl and 5 ng/ml FGF2, bringing the final media volume to 300 μl in each well. The cerebellar neurons are cultured for 27 hours before fixing and staining for GAP-43.
# cerebellar neurons [8] = settings: FGF2 5 ng/ml, WIN55,2122-2 0.2 μM; linear peptide up to 125 μM
# Procedure: The peptides were also tested for their ability to inhibit the neurite outgrowth response stimulated by other agents, including N-cadherin, FGF2 or a CB1 receptor agonist.
# T1 sequence (Q63604 32-821): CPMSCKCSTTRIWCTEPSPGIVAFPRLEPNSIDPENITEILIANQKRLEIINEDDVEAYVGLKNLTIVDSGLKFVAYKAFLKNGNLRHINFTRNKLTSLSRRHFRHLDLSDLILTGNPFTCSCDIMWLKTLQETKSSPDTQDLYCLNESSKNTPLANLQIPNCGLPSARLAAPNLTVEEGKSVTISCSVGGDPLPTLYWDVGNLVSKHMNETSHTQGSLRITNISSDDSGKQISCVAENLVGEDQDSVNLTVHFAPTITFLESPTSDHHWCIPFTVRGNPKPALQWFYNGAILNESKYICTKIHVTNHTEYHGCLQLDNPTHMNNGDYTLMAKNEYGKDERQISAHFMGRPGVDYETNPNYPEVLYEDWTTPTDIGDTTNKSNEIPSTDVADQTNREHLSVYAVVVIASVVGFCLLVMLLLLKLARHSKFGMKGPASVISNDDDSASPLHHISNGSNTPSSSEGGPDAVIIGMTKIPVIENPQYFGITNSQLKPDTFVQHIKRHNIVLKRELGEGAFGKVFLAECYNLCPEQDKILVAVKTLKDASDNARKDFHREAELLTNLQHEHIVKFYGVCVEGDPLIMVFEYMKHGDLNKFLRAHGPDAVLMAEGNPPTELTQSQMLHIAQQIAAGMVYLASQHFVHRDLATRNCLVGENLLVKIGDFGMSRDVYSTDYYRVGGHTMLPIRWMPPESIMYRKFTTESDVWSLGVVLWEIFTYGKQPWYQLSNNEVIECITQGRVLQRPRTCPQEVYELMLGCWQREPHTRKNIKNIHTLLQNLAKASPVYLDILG
# Trk receptor, sequence (Q63604 32-821): as above
compound,measurement,setting,value
O=S(=O)(NCCNC/C=C/c1ccc(Br)cc1)c1cccc2cnccc12 [H-89],effect on the neurite outgrowth response to BAG,cerebellar neurons [1],essentially abolished
same,effect on the neurite outgrowth response to BDNF,cerebellar neurons [1],essentially abolished
same,effect on the neurite outgrowth response to FGF2,cerebellar neurons [1],unaffected
COC(=O)[C@@]1(O)C[C@H]2O[C@]1(C)n1c3ccccc3c3c4c(c5c6ccccc6n2c5c31)C(=O)NC4 [K252a],effect on the neurite outgrowth response to BAG,cerebellar neurons [1],essentially abolished
same,effect on the neurite outgrowth response to BDNF,cerebellar neurons [1],essentially abolished
same,effect on the neurite outgrowth response to FGF2,cerebellar neurons [1],unaffected
same,inhibition of the neurite outgrowth response to the BAG peptide,Trk receptor,fully inhibited the response
CCCCCCOC(=O)[C@]1(O)C[C@@H]2O[C@@]1(C)n1c3ccccc3c3c4c(c5c6ccccc6n2c5c31)C(=O)NC4 [KT5720],effect on the neurite outgrowth response to BAG,cerebellar neurons [1],essentially abolished
same,effect on the neurite outgrowth response to BDNF,cerebellar neurons [1],essentially abolished
same,effect on the neurite outgrowth response to FGF2,cerebellar neurons [1],unaffected
CC(=O)N[C@H]1CSSC[C@@H](C(N)=O)NC(=O)[C@H](CCC(=O)O)NC(=O)CNC(=O)[C@H](CCCNC(=N)N)NC(=O)[C@H](CCCNC(=N)N)NC(=O)[C@H](CO)NC1=O [N-Ac-CSRRGEC-NH2] (Ac-CSRRGEC-NH2; disulfide 1-7),TrkB antagonist potency compared with NT-3 and NGF equivalent peptides,TrkB receptor [2],more potent TrkB antagonist
same,IC50,"TrkB receptor [2]; 50% inhibition of the BDNF response, BDNF 5 ng/ml",27 µM and ~25 µM
same,fold better than the NGF and NT-3 derived peptides at inhibiting the BDNF response,TrkB receptor [2]; BDNF 5 ng/ml,approximately 5 fold
same,IC50,TrkB receptor [3],~55 µM
same,effect on basal neurite outgrowth,cerebellar neurons [4],neither the N-Ac-CSRRGEC-NH2 (SEQ ID NO:2) peptide nor its NGF or NT-3 equivalents had any effect on basal neurite outgrowth
same,inhibition of the neurite outgrowth response to the BAG peptide,Trk receptor,can fully inhibit the activity
"CCN(CC)CCCCNc1ncc2cc(-c3cc(OC)cc(OC)c3)c(NC(=O)NC(C)(C)C)nc2n1 [PD17304, reference compound]",inhibition of the neurite outgrowth response to the BAG peptide,Trk receptor,did not inhibit the response
"C[C@@H](N)[C@H]1CC[C@H](C(=O)Nc2ccncc2)CC1 [Y27632, reference compound]",effect on MAG-Fc inhibition of neurite outgrowth,MAG inhibitory activity [5],MAG-Fc does not inhibit neurite outgrowth
same,effect on inhibition of neurite outgrowth by GT1b antibody,GT1b,effectively abolishes this effect
same,effect on inhibitory response elicited by p75NTR antibody,p75^NTR receptor,does not elicit an inhibitory response
Ac-CSRRGELAASRRGELC-NH2 (cysteine pairing not given here) [BAG],EC50,cerebellar neurons [4],~300 nM
same,concentration of near maximal neurite outgrowth response,cerebellar neurons [4],about 600 Nm
same,promotion of axonal growth compared with established growth promoting agents,"cerebellar neurons [4]; BAG 6 μM, comparators 5 ng/ml","promotes axonal growth by the same extent as maximally active concentrations of NT-R, BDNF and FGF2"
same,lowest concentration that effectively blocks MAG inhibitor activity,MAG inhibitory activity [5]; MAG-Fc 25 μg/ml,30 nM
same,effect on MAG-Fc inhibition of neurite outgrowth,MAG inhibitory activity [5],MAG-Fc failed to inhibit neurite outgrowth
same,effect on neurite outgrowth in the absence of MAG-Fc,MAG inhibitory activity [6],does not have a substantial effect
same,effect on MAG-Fc inhibition of neurite outgrowth,"MAG inhibitory activity [6]; MAG-Fc 25 μg/ml, BDNF 5 ng/ml",does effectively block the MAG response
same,effect on inhibition of neurite outgrowth by GT1b antibody,GT1b,the antibody's inhibitor effect is effectively eliminated
same,effect on inhibitory response elicited by p75NTR antibody,p75^NTR receptor,effectively blocks the p75^NTR antibody's inhibitory effect
same,neurite growth in the inhibitory environment at 10 μg/ml and 100 μg/ml,"MAG inhibitory activity [7]; concentrations of 10 μg/ml and 100 μg/ml, MAG-Fc coating",promotes neurite growth
Ac-SRRGELA-NH2,inhibition of the BDNF response,"TrkB receptor [2]; BDNF 5 ng/ml, linear peptide up to 125 μM",did not inhibit any of the response
same,inhibition of the NT-4 response,"TrkB receptor [3]; NT-4 5 ng/ml, linear peptide up to 125 μM",did not inhibit any of the response
same,"inhibition of neurite outgrowth response stimulated by N-cadherin, FGF2 or a CB1 receptor agonist",cerebellar neurons [8],did not inhibit any of the response
same,inhibition of the neurite outgrowth response to the BAG peptide,Trk receptor,very little to no effect
Ac-dCdLdEGdRdRdSdAdAdLdEGdRdRdSdC-NHs [riBAG1],neurite growth in the inhibitory environment (overall / dose response),MAG inhibitory activity [7]; MAG-Fc coating,block MAG inhibitory activity and promote neurite outgrowth
same,neurite growth in the inhibitory environment at 33 μg/ml,MAG inhibitory activity [7]; MAG-Fc coating,does not promote growth
N-Ac-CRGEC-NH2,effect on basal neurite outgrowth,cerebellar neurons [4],no effect on basal neurite outgrowth
c(dLdEGdRdRdSdLdEGdRdRdS) [hriBAG2],neurite growth in the inhibitory environment (overall / dose response),MAG inhibitory activity [7]; MAG-Fc coating,block MAG inhibitory activity and promote neurite outgrowth; also recorded: promoted substantial dose-dependent neurite growth
same,dose at which a neurite growth response can be observed,MAG inhibitory activity [7]; inhibitory environment (MAG-Fc coating),about 10 μg/ml
same,neurite growth in the inhibitory environment at 33 μg/ml,MAG inhibitory activity [7]; MAG-Fc coating,"almost double the value seen in the inhibitory environment without the peptidomimetic; also recorded: promoted neurite growth to a substantially greater extent than BDNF, BAG peptide, and the hBAG2 and riBAG1 at any concentration"
cyclo(SRRGELSRRGEL) [hBAG2],neurite growth in the inhibitory environment (overall / dose response),MAG inhibitory activity [7]; MAG-Fc coating,block MAG inhibitory activity and promote neurite outgrowth
same,neurite growth in the inhibitory environment at 33 μg/ml,MAG inhibitory activity [7]; MAG-Fc coating,promotes neurite growth; also recorded: promoted neurite growth to an extent comparable to BAG polypeptide at a concentration of 10 μg/ml

# Source: patent US7196061B2, “Compounds that modulate neuronal growth and their uses” (priority 2003, dated 2007)
